Data: patent US6906205B2, “Spiro and dispiro 1,2,4-trioxolane antimalarials” (Medicines for Malaria Venture MMV, priority 2002, dated 2005)

System: ANKA strain of P. berghei
Test: single dose STI in vivo screen in infected mice
Set-up: species or system Plasmodium berghei
Details: for Activity (%) po / Activity (%) sc / Activity (%) SSVpo / Activity (%) 3 mg/kg SSV po / Activity (%) 10 mg/kg SSV po: percent reduction in parasitemia day 3 post-infection; for Activity (%) po / Survival (days) po: single 10 mg/kg po in 3% ethanol and 7% Tween 80; for Activity (%) po / Activity (%) sc / Activity (%) SSVpo: mice; for Activity (%) sc / Survival (days) sc: single 10 mg/kg sc in 3% ethanol and 7% Tween 80; for Survival (days) po / Survival (days) sc / Survival (days) SSVpo: untreated control 5.6 ± 0.3; for Activity (%) SSVpo: single po dose in standard suspending vehicle (SSV); for Survival (days) SSVpo: single po dose in SSV; for Activity (%) 3 mg/kg SSV po: single 3 mg/kg po in SSV; for Activity (%) 10 mg/kg SSV po / Survival (days) 10 mg/kg SSV po: single 10 mg/kg po in SSV
Experimental: In the single dose STI in vivo screen, Moro SPF or NMRI mice infected with the ANKA strain of P. berghei (groups of 3-5 mice) were treated on day one post-infection with trioxolanes dissolved or suspended in 3% ethanol and 7% Tween 80. […] SSV consists of 0.5% w/v CMC, 0.5% v/v benzyl alcohol, 0.4% v/v Tween 80, and 0.9% w/v sodium chloride in water. Antimalarial activity was measured by percent reduction in parasitemia on day three post-infection and survival times compared to an untreated control group. Survival to day 30 post-infection is considered to be a cure. […] Other factors influencing antimalarial activity include the stability of carbon radicals formed by β-scission subsequent to the initial electron transfer to the peroxide bond and the influence of steric effects remote from the peroxide bond on the interactions between carbon radicals and potential drug targets.

Structure (SMILES) | Activity (%) po | Activity (%) sc | Survival (days) po | Survival (days) sc | Activity (%) SSVpo | Survival (days) SSVpo | Activity (%) 3 mg/kg SSV po [%] | Activity (%) 10 mg/kg SSV po | Survival (days) 10 mg/kg SSV po
CCOC(=O)CCC1CCCCC12OOC1(O2)C2CC3CC(C2)CC1C3 (stereo not shown) [OZ08] | 99.7% | 99.9% | 8.0 days | 9.7 days | – | – | – | – | –
FC(F)(F)c1cccc(C2(c3cccc(C(F)(F)F)c3)OOC3(O2)C2CC4CC(C2)CC3C4)c1 (stereo not shown) [OZ46] | 99% | 62% | 7.7 days | 6.0 days | – | – | – | – | –
FC(F)(F)c1ccc(C2CCC3(CC2)OOC2(O3)C3CC4CC(C3)CC2C4)cc1 (stereo not shown) [OZ48] | 99.8% | 42% | 8.7 days | 6.3 days | – | – | – | – | –
CCOC(=O)CCC(=O)N1CCC2(CC1)OOC1(O2)C2CC3CC(C2)CC1C3 (stereo not shown) [OZ53] | 9% | 58% | 6.0 days | 6.3 days | – | – | – | – | –
O=C(C[n+]1ccccc1)NN=C1CCC2(CC1)OOC1(O2)C2CC3CC(C2)CC1C3.[Cl-] (stereo not shown) [OZ55] | 45% | 97% | 6.0 days | 7.3 days | – | – | – | – | –
O=C(c1ccncc1)N1CCC2(CC1)OOC1(O2)C2CC3CC(C2)CC1C3 (stereo not shown) [OZ100] | 61% | 80% | 6.7 days | 7.0 days | 36% | 6.3 days | – | – | –
O=C(COc1ccc(Cl)cc1)N1CCC2(CC1)OOC1(O2)C2CC3CC(C2)CC1C3 (stereo not shown) [OZ101] | 44% | 99.97% | 6.3 days | 13 days | 0% | 5.3 days | – | – | –
O=C(Nc1ccccc1)N1CCC2(CC1)OOC1(O2)C2CC3CC(C2)CC1C3 (stereo not shown) [OZ102] | 92% | 99.97% | 7.0 days | 19.7 days | 73% | 6.7 days | – | – | –
CC(C)(O)[C@H]1CC[C@]2(CC1)OOC1(O2)C2CC3CC(C2)CC1C3 (stereo partly shown) [OZ108] | 0/0/0% | 0/0/0% | – | – | 0/0/0% | 5.0 days | – | – | –
OC[C@H]1CC[C@]2(CC1)OOC1(O2)C2CC3CC(C2)CC1C3 (stereo partly shown) [OZ119] | – | – | – | – | – | 8.0 days | – | – | –
O=C1c2ccccc2C(=O)N1[C@H]1CC[C@]2(CC1)OOC1(O2)C2CC3CC(C2)CC1C3 (stereo partly shown) [OZ136] | 0/0/0% | 0/0/0% | 6.0/6.0/6.0 days | 6.0/6.0/6.0 days | 0/0/0% | 6.0/6.0/6.0 days | – | – | –
N[C@H]1CC[C@]2(CC1)OOC1(O2)C2CC3CC(C2)CC1C3 (stereo partly shown) [OZ137] | 0% | 61% | – | – | 6% | 6.3 days | – | – | –
Cc1ccc(NC(=O)N2CCC3(CC2)OOC2(O3)C3CC4CC(C3)CC2C4)cc1 (stereo not shown) [OZ142] | 0% | 99.98% | 6.0 days | 14.3 days | 2% | 6.3 days | – | – | –
O=C1c2ccccc2C(=O)N1C[C@H]1CC[C@]2(CC1)OOC1(O2)C2CC3CC(C2)CC1C3 (stereo partly shown) [OZ146] | 62% | 91% | – | – | 40% | 6.3 days | – | – | –
O=C(N1CCOCC1)N1CCC2(CC1)OOC1(O2)C2CC3CC(C2)CC1C3 (stereo not shown) [OZ188] | 93% | 99.87% | 8.7 days | 9.0 days | 98% | 10.0 days | – | – | –
O=C(Nc1ccc(Cl)cc1)N1CCC2(CC1)OOC1(O2)C2CC3CC(C2)CC1C3 (stereo not shown) [OZ192] | 38% | 99.98% | 6.0 days | 13.7 days | 45% | 7.0 days | – | – | –
O=C(NC[C@H]1CC[C@]2(CC1)OO[C@]1(O2)C2CC3CC(C2)CC1C3)N1CCOCC1 [OZ272] | – | – | – | – | – | – | 49 | 98% | –

Structure (SMILES) | Activity (%) po | Activity (%) sc | Survival (days) po | Survival (days) sc | Activity (%) SSVpo | Survival (days) SSVpo | Activity (%) 3 mg/kg SSV po [%] | Activity (%) 10 mg/kg SSV po | Survival (days) 10 mg/kg SSV po
O=C(NC[C@H]1CC[C@]2(CC1)OOC1(O2)C2CC3CC(C2)CC1C3)c1ccccc1O (stereo partly shown) [OZ280] | – | – | – | – | – | – | – | 0/ND % | 5.7ND days
O=C(NC[C@H]1CC[C@]2(CC1)OOC1(O2)C2CC3CC(C2)CC1C3)c1ccc(O)nc1 (stereo partly shown) [OZ282] | – | – | – | – | – | – | 53 | – | 8.3 days
Nc1ncccc1C(=O)NC[C@H]1CC[C@]2(CC1)OOC1(O2)C2CC3CC(C2)CC1C3 (stereo partly shown) [OZ284] | – | – | – | – | – | – | 61 | 97% | 9.0 days
CCNC(=O)NC[C@H]1CC[C@]2(CC1)OO[C@]1(O2)C2CC3CC(C2)CC1C3 [OZ291] | – | – | – | – | – | – | 34 | 98% | 8.0 days
c1cncc(NC[C@H]2CC[C@]3(CC2)OO[C@]2(O3)C3CC4CC(C3)CC2C4)c1 [OZ293] | – | – | – | – | – | – | 77 | – | 8.8 days
NS(=O)(=O)c1ccc(NC[C@H]2CC[C@]3(CC2)OO[C@]2(O3)C3CC4CC(C3)CC2C4)cc1 [OZ298] | – | – | – | – | – | – | 98 | 99.95% | 9.4 days
O=CN1CCN(C[C@H]2CC[C@]3(CC2)OO[C@]2(O3)C3CC4CC(C3)CC2C4)CC1 [OZ303] | – | – | – | – | – | – | 69 | 99.01% | 8.6 days
O=C(NC[C@H]1CC[C@]2(CC1)OO[C@]1(O2)C2CC3CC(C2)CC1C3)c1ccccn1 [OZ304] | – | – | – | – | – | – | 61 | 98% | 8.2 days
CS(=O)(=O)N(CC(N)=O)C[C@H]1CC[C@]2(CC1)OO[C@]1(O2)C2CC3CC(C2)CC1C3 [OZ308] | – | – | – | – | – | – | 30 | 86% | 7.8 days
Cn1ccnc1S(=O)(=O)C[C@H]1CC[C@]2(CC1)OO[C@]1(O2)C2CC3CC(C2)CC1C3 [OZ310] | – | – | – | – | – | – | 38 | 81% | 7.8 days
NC(=O)C1CCN(C(=O)C[C@H]2CC[C@]3(CC2)OO[C@]2(O3)C3CC4CC(C3)CC2C4)CC1 [OZ311] | – | – | – | – | – | – | 40 | 80% | 8.6 days
O=C(C[C@H]1CC[C@]2(CC1)OO[C@]1(O2)C2CC3CC(C2)CC1C3)N1CCN(c2ncccn2)CC1 [OZ314] | – | – | – | – | – | – | 11 | 13% | –
Cc1ccc(S(=O)(=O)O)cc1.N[C@H]1CC[C@H](NC(=O)C[C@H]2CC[C@]3(CC2)OO[C@]2(O3)C3CC4CC(C3)CC2C4)CC1 [OZ315] | – | – | – | – | – | – | 92 | – | –
O=C(CNC(=O)c1cccnc1)NC[C@H]1CC[C@]2(CC1)OO[C@]1(O2)C2CC3CC(C2)CC1C3 [OZ316] | – | – | – | – | – | – | 7 | 69% | 10.0 days
CCOC(=O)CCNCC1CCC2(CC1)OOC1(O2)C2CC3CC(C2)CC1C3.Cc1ccc(S(=O)(=O)O)cc1 (stereo not shown) [OZ318] | – | – | – | – | – | – | 29 | 88% | –
NC(=O)c1cncn1C[C@H]1CC[C@]2(CC1)OO[C@]1(O2)C2CC3CC(C2)CC1C3 [OZ321] | – | – | – | – | – | – | 64 | 99.77% | 14.0 days
